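Where inhibition never reached the appropriate level, the endpoint shown equals the highest concentration tested. Otherwise, values were interpolated linearly from a five-concentration, 48-hour dose response in 96-well plates. TGI denotes the concentration required for complete inhibition of growth.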
Assays:
Experiment in all cases: inhibition of tumour cell growth, NCI panel, 48 h
SN12C renal = test system: SN12C renal
A549 NSCLC = test system: A549 NSCLC
XF 498 CNS = test system: XF 498 CNS
SF-268 CNS = test system: SF-268 CNS
M19-MEL melanoma = test system: M19-MEL melanoma
HT29 colon = test system: HT29 colon
NCI-H23 lung = test system: NCI-H23 lung
SNB-75 CNS = test system: SNB-75 CNS
RXF 393 renal = test system: RXF 393 renal
M14 melanoma = test system: M14 melanoma
RXF-631 renal = test system: RXF-631 renal
OVCAR-5 ovarian = test system: OVCAR-5 ovarian
SF-539 CNS = test system: SF-539 CNS
OVCAR-4 ovarian = test system: OVCAR-4 ovarian
NCI-H226 lung = test system: NCI-H226 lung
OVCAR-8 ovarian = test system: OVCAR-8 ovarian
HOP-92 NSCLC = test system: HOP-92 NSCLC
SK-OV-3 ovarian = test system: SK-OV-3 ovarian
UO-31 renal = test system: UO-31 renal
CCRF-CEM leukemia = test system: CCRF-CEM leukemia
CAKI-1 renal = test system: CAKI-1 renal
TK-10 renal = test system: TK-10 renal
A498 renal = test system: A498 renal
DMS 273 small cell lung = test system: DMS 273 small cell lung
DMS 114 small cell lung = test system: DMS 114 small cell lung
ACHN renal = test system: ACHN renal
HOP-18 NSCLC = test system: HOP-18 NSCLC
HL-60(TB) leukemia = test system: HL-60(TB) leukemia
IGROV1 ovarian = test system: IGROV1 ovarian
HOP-62 NSCLC = test system: HOP-62 NSCLC
SK-MEL-5 melanoma = test system: SK-MEL-5 melanoma
UACC-257 melanoma = test system: UACC-257 melanoma
MALME-3M melanoma = test system: MALME-3M melanoma
LXFL 529 NSCLC = test system: LXFL 529 NSCLC
SW-620 colon = test system: SW-620 colon
SK-MEL-2 melanoma = test system: SK-MEL-2 melanoma
SNB-19 CNS = test system: SNB-19 CNS
HCT-15 colon = test system: HCT-15 colon
RPMI-8226 leukemia = test system: RPMI-8226 leukemia
NCI-H522 lung = test system: NCI-H522 lung
UACC-62 melanoma = test system: UACC-62 melanoma
OVCAR-3 ovarian = test system: OVCAR-3 ovarian
KM12 colon = test system: KM12 colon
KM20L2 colon = test system: KM20L2 colon
SF-295 CNS = test system: SF-295 CNS
NCI-H460 lung = test system: NCI-H460 lung
K-562 leukemia = test system: K-562 leukemia
DLD-1 colon = test system: DLD-1 colon
LOX IMVI melanoma = test system: LOX IMVI melanoma
COLO 205 colon = test system: COLO 205 colon
U251 CNS = test system: U251 CNS
HCC-2998 colon = test system: HCC-2998 colon
786-0 renal = test system: 786-0 renal
EKVX NSCLC = test system: EKVX NSCLC
SNB-78 CNS = test system: SNB-78 CNS
SK-MEL-28 melanoma = test system: SK-MEL-28 melanoma
MOLT-4 leukemia = test system: MOLT-4 leukemia
HCT-116 colon = test system: HCT-116 colon
SR leukemia = test system: SR leukemia

Measured: TGI

C[C@]12CCc3nonc3C1CC[C@@H]1C2CC[C@]2(C)C(=O)CCC12 (some centres undefined)
39.2 µM: HL-60(TB) leukemia
49.2 µM: CAKI-1 renal
47.6 µM: LOX IMVI melanoma
82.4 µM: KM20L2 colon
37.9 µM: HT29 colon
46.8 µM: SK-MEL-2 melanoma
72.2 µM: NCI-H522 lung
71.2 µM: HCC-2998 colon
45 µM: XF 498 CNS
> 10 µM: TK-10 renal | UACC-257 melanoma | SK-MEL-28 melanoma
37.4 µM: KM12 colon
49.8 µM: SF-539 CNS
68.2 µM: UO-31 renal
61.6 µM: MOLT-4 leukemia
60 µM: DMS 114 small cell lung
57.8 µM: CCRF-CEM leukemia
83.9 µM: SF-295 CNS
51.1 µM: DMS 273 small cell lung
94.5 µM: SNB-75 CNS
58.7 µM: OVCAR-3 ovarian
82.5 µM: A549 NSCLC
56.3 µM: COLO 205 colon
34.2 µM: SK-MEL-5 melanoma
65.7 µM: MALME-3M melanoma
46.5 µM: RPMI-8226 leukemia
68.3 µM: UACC-62 melanoma
69.4 µM: EKVX NSCLC
57.2 µM: M19-MEL melanoma
55.3 µM: HOP-92 NSCLC
78.8 µM: A498 renal
not listed: HCT-116 colon | SR leukemia
> 100 µM: all other assays above

O=c1nc2sc3ccc4ccccc4c3n2nc1-c1ccccc1
46.9 µM: SNB-75 CNS
41.1 µM: MALME-3M melanoma
38.2 µM: U251 CNS
93.8 µM: SN12C renal
70.6 µM: RXF 393 renal
59.2 µM: NCI-H460 lung
73.9 µM: CAKI-1 renal
87.5 µM: NCI-H23 lung
95.1 µM: SK-OV-3 ovarian
51.4 µM: UO-31 renal
34.2 µM: SF-539 CNS
82.6 µM: IGROV1 ovarian
51.2 µM: HCT-116 colon
29.3 µM: OVCAR-4 ovarian
38 µM: 786-0 renal
42.2 µM: OVCAR-8 ovarian
70.2 µM: XF 498 CNS
33.3 µM: SF-295 CNS
93.7 µM: HOP-18 NSCLC
50 µM: HOP-92 NSCLC
40.4 µM: OVCAR-3 ovarian
28.4 µM: LOX IMVI melanoma
50.4 µM: TK-10 renal
66.6 µM: HOP-62 NSCLC
87.4 µM: ACHN renal
94.5 µM: A549 NSCLC
not listed: A498 renal | RPMI-8226 leukemia | NCI-H522 lung
> 100 µM: all other assays above

COc1c(CC(=O)c2ccccc2)c2ccccc2n1C(C)=O
not listed: SF-268 CNS | OVCAR-5 ovarian | NCI-H226 lung | TK-10 renal | SK-MEL-5 melanoma | MALME-3M melanoma | NCI-H522 lung | LOX IMVI melanoma
> 100 µM: all other assays above

CCN(C1=CC(=O)NC2CCCCN12)c1ccccc1 (centres undefined)
not listed: NCI-H226 lung | HOP-92 NSCLC | UO-31 renal | HL-60(TB) leukemia | NCI-H522 lung | SR leukemia
> 100 µM: all other assays above

C/C(=N\N(C)C)C(CN1CCCCC1)C(c1ccccc1)c1c(O)c2ccccc2oc1=O (centres undefined)
not listed: HOP-92 NSCLC | HCC-2998 colon
> 100 µM: all other assays above
